pEC50, pKd: −log10 of the molar value.
Columns and labels:
[1] = molecular target: Peptidyl-prolyl cis-trans isomerase A (Homo sapiens, UniProt P62937); assay: Binding affinity to Cyclophilin A (unknown origin) by surface plasmon resonance analysis
[2] = Antiviral activity against HCV genotype 2a JFH-1 infected in human Huh7.5 cells after 3 days by renilla luciferase reporter gene assay; assay type: functional, cell-based, Hepatitis C virus subtype 2a; settings: Hepatitis C virus, JFH-1, Huh7.5, 72 h
[3] = Cytotoxicity against human Huh7.5 cells assessed as decrease in cell viability after 3 days by MTT assay; assay type: cell-based; settings: time 3 day
[4] = Selectivity index, ratio of CC50 for human Huh7.5 cells to EC50 for genotype 2a HCV JFH-1 infected in human Huh7.5 cells; assay type: toxicity, cell-based
Hepatitis C virus = assay: Antiviral activity against 0.05 MOI HCV JFH-1 infected in human Huh7.5 assessed as suppression of viral replication after 4 days post-infection by western blot analysis; assay type: functional, organism-based; settings: Hepacivirus hominis, time 4.0 day

Chain of Peptidyl-prolyl cis-trans isomerase A (P62937 whole entry): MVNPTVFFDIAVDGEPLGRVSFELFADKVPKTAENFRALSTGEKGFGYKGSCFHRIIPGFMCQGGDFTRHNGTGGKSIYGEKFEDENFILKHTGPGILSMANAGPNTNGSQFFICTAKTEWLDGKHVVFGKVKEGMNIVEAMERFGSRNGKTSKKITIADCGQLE

SMILES | pKd [1] | pEC50 [2] | CC50 at 72 h [3] [µM] | selectivity ratio [4] | Activity (Hepatitis C virus)
CC(C)c1ccc(N(C(=O)Cc2c[nH]c3ccccc23)C(C(=O)NC2CCCCC2)c2ccc([N+](=O)[O-])cc2)cc1 (centres undefined) | 5.34 | – | – | – | –
COc1ccc(CCN(C(=O)Cc2c[nH]c3ccccc23)C(C(=O)NC2CCCCC2)c2cc(OC)c(OC)c(OC)c2)cc1OC (centres undefined) | – | 5.28 | > 100 | – | –
O=C(NC1CCCCC1)C(c1ccc([N+](=O)[O-])cc1)N(C(=O)Cc1c[nH]c2ccccc12)c1ccc(Br)cc1 (centres undefined) | – | 5.20 | 13.8 | 2.2 | –
COc1cccc(CCN(C(=O)Cc2c[nH]c3ccccc23)C(C(=O)NC2CCCCC2)c2ccc([N+](=O)[O-])cc2)c1 (centres undefined) | – | < 4.56 | 27.6 | – | –
COc1ccc(N(C(=O)Cc2c[nH]c3ccccc23)C(C(=O)NC2CCCCC2)c2ccc([N+](=O)[O-])cc2)cc1 (centres undefined) | – | 5.60 | 8.5 | 3.4 | –
NC(=O)c1ncn([C@@H]2O[C@H](CO)[C@@H](O)[C@H]2O)n1 [RIBAVIRIN] | – | 4.79 | > 100 | > 6.1 | –
COc1cccc(CCN(C(=O)c2cc3ccccc3[nH]2)C(C(=O)NC2CCCCC2)c2ccc([N+](=O)[O-])cc2)c1 (centres undefined) | – | 4.65 | 43.1 | 1.9 | –
COc1ccc(CCN(C(=O)Cc2c[nH]c3ccccc23)C(C(=O)NC2CCCCC2)c2ccc([N+](=O)[O-])cc2)cc1OC (centres undefined) | – | 5.38 | > 100 | > 23.8 | Dose-dependent effect
CC(C)(C)NC(=O)C(c1ccc([N+](=O)[O-])cc1)N(C(=O)Cc1c[nH]c2ccccc12)c1ccc(Br)cc1 (centres undefined) | – | < 5.15 | 7 | – | –
COc1ccc(N(C(=O)c2cc3ccccc3[nH]2)C(C(=O)NC2CCCCC2)c2ccc([N+](=O)[O-])cc2)cc1OC (centres undefined) | – | 5.39 | > 100 | > 24.5 | Dose-dependent effect
COc1ccc(N(C(=O)Cc2c[nH]c3ccccc23)C(C(=O)NC2CCCCC2)c2ccc([N+](=O)[O-])cc2)cc1OC (centres undefined) | – | 5.49 | 57.6 | 18 | –
CCCCCNC(=O)C(c1ccc([N+](=O)[O-])cc1)N(C(=O)Cc1c[nH]c2ccccc12)c1ccc(Br)cc1 (centres undefined) | – | < 5.15 | 7 | – | –
COc1ccc(CCN(C(=O)c2cc3ccccc3[nH]2)C(C(=O)NC2CCCCC2)c2ccc([N+](=O)[O-])cc2)cc1OC (centres undefined) | – | 4.50 | > 100 | > 3.1 | –
COc1cc(C(C(=O)NC2CCCCC2)N(C(=O)Cc2c[nH]c3ccccc23)c2ccc(C(C)C)cc2)cc(OC)c1OC (centres undefined) | – | 5.28 | > 100 | – | –
O=C(NC1CCCCC1)C(c1ccc([N+](=O)[O-])cc1)N(C(=O)Cc1c[nH]c2ccccc12)c1ccccc1 (centres undefined) | – | 5.22 | 11.9 | 2 | –
COc1ccc(CCC(=O)N(c2ccc(Br)cc2)C(C(=O)NC2CCCCC2)c2ccc([N+](=O)[O-])cc2)cc1 (centres undefined) | – | 5.21 | 9.8 | – | –
COc1ccc(CN(C(=O)Cc2c[nH]c3ccccc23)C(C(=O)NC2CCCCC2)c2ccc([N+](=O)[O-])cc2)cc1 (centres undefined) | – | < 4.25 | 56.3 | – | –

— ChEMBL document CHEMBL4725397, “SAR study of bisamides as cyclophilin a inhibitors for the development of host-targeting therapy for hepatitis C virus infection” (Bioorg Med Chem, 2020)
